Results from the NIST ThermoML archive (doi:10.1021/je0601208).

Tests used:
[1] = refractive index (Na D-line) (dimensionless); xn = mol fraction of the nth substance listed; conditions: 100.5 kPa, Liquid, Standard Abbe refractometry
[2] = xn = mol fraction of the nth substance listed

CCCC(=O)OCCC(C)C [3-methylbutyl butanoate] + CCO
Conditions	refractive index, 288.15 K	refractive index, 298.15 K	refractive index, 308.15 K	refractive index, 318.15 K	surface tension liquid-gas, 288.15 K [mN/m]	surface tension liquid-gas, 298.15 K [mN/m]	surface tension liquid-gas, 308.15 K [mN/m]	surface tension liquid-gas, 318.15 K [mN/m]
[1], x1 = 0.05	1.3703	1.36624	1.36195	1.3578	–	–	–	–
[1], x1 = 0.1	1.37602	1.37182	1.36747	1.36327	–	–	–	–
[1], x1 = 0.15	1.3808	1.37656	1.37218	1.36792	–	–	–	–
[1], x1 = 0.2	1.38488	1.38059	1.3762	1.3719	–	–	–	–
[1], x1 = 0.25	1.38839	1.38406	1.37967	1.37533	–	–	–	–
[1], x1 = 0.3	1.39145	1.38709	1.38268	1.37832	–	–	–	–
[1], x1 = 0.35	1.39415	1.38977	1.38535	1.38096	–	–	–	–
[1], x1 = 0.4	1.39656	1.39216	1.38773	1.38332	–	–	–	–
[1], x1 = 0.45	1.39871	1.39431	1.38987	1.38544	–	–	–	–
[1], x1 = 0.5	1.40065	1.39624	1.3918	1.38736	–	–	–	–
[1], x1 = 0.55	1.4024	1.39798	1.39354	1.3891	–	–	–	–
[1], x1 = 0.6	1.40399	1.39956	1.39513	1.39067	–	–	–	–
[1], x1 = 0.65	1.40543	1.401	1.39656	1.3921	–	–	–	–
[1], x1 = 0.7	1.40673	1.4023	1.39786	1.3934	–	–	–	–
[1], x1 = 0.75	1.40793	1.40349	1.39905	1.39459	–	–	–	–
[1], x1 = 0.8	1.40902	1.40458	1.40015	1.39569	–	–	–	–
[1], x1 = 0.85	1.41003	1.40559	1.40116	1.3967	–	–	–	–
[1], x1 = 0.9	1.41096	1.40652	1.4021	1.39763	–	–	–	–
[1], x1 = 0.95	1.41181	1.40737	1.40296	1.39849	–	–	–	–
[1], x1 = 1	1.41259	1.40815	1.40374	1.39927	–	–	–	–
[2], x1 = 0.05	–	–	–	–	23.3	22.6	21.8	20.9
[2], x1 = 0.1	–	–	–	–	23.6	22.8	22	21.1
[2], x1 = 0.15	–	–	–	–	23.8	23	22.2	21.3
[2], x1 = 0.2	–	–	–	–	24	23.1	22.4	21.5
[2], x1 = 0.25	–	–	–	–	24.1	23.3	22.5	21.6
[2], x1 = 0.3	–	–	–	–	24.3	23.4	22.6	21.7
[2], x1 = 0.35	–	–	–	–	24.4	23.5	22.7	21.8
[2], x1 = 0.4	–	–	–	–	24.5	23.6	22.8	21.9
[2], x1 = 0.45	–	–	–	–	24.6	23.7	22.9	22
[2], x1 = 0.5	–	–	–	–	24.7	23.8	23	22.1
[2], x1 = 0.55	–	–	–	–	24.8	23.9	23.1	22.2
[2], x1 = 0.6	–	–	–	–	24.9	23.9	23.2	22.3
[2], x1 = 0.65	–	–	–	–	25	24	23.3	22.4
[2], x1 = 0.7	–	–	–	–	25.1	24.1	23.4	22.5
[2], x1 = 0.75	–	–	–	–	25.2	24.2	23.5	22.6
[2], x1 = 0.8	–	–	–	–	25.3	24.3	23.6	22.7
[2], x1 = 0.85	–	–	–	–	25.4	24.4	23.7	22.8
[2], x1 = 0.9	–	–	–	–	25.5	24.5	23.8	22.9
[2], x1 = 0.95	–	–	–	–	25.6	24.6	23.9	23
[2], x1 = 1	–	–	–	–	25.7	24.7	24	23.1

CC(=O)OCCC(C)C [3-methylbutyl ethanoate] + CCO
Conditions	refractive index, [1]	surface tension liquid-gas, [2] [mN/m]
288.15 K, x1 = 0.05	1.36803	23.2
288.15 K, x1 = 0.1	1.37207	23.4
288.15 K, x1 = 0.15	1.37559	23.6
288.15 K, x1 = 0.2	1.3787	23.7
288.15 K, x1 = 0.25	1.38146	23.8
288.15 K, x1 = 0.3	1.38393	24
288.15 K, x1 = 0.35	1.38614	24.1
288.15 K, x1 = 0.4	1.38814	24.2
288.15 K, x1 = 0.45	1.38996	24.3
288.15 K, x1 = 0.5	1.39164	24.4
288.15 K, x1 = 0.55	1.39319	24.5
288.15 K, x1 = 0.6	1.39462	24.6
288.15 K, x1 = 0.65	1.39595	24.7
288.15 K, x1 = 0.7	1.39717	24.8
288.15 K, x1 = 0.75	1.39829	24.9
288.15 K, x1 = 0.8	1.39933	25
288.15 K, x1 = 0.85	1.40031	25.1
288.15 K, x1 = 0.9	1.40122	25.2
288.15 K, x1 = 0.95	1.40207	25.3
288.15 K, x1 = 1	1.40288	25.4
298.15 K, x1 = 0.05	1.36393	22.4
298.15 K, x1 = 0.1	1.36787	22.5
298.15 K, x1 = 0.15	1.37133	22.7
298.15 K, x1 = 0.2	1.3744	22.8
298.15 K, x1 = 0.25	1.37712	22.9
298.15 K, x1 = 0.3	1.37954	–
298.15 K, x1 = 0.35	1.38172	23
298.15 K, x1 = 0.4	1.3837	23.1
298.15 K, x1 = 0.45	1.3855	23.2
298.15 K, x1 = 0.5	1.38717	23.3
298.15 K, x1 = 0.55	1.38871	23.4
298.15 K, x1 = 0.6	1.39013	23.5
298.15 K, x1 = 0.65	1.39144	23.6
298.15 K, x1 = 0.7	1.39265	23.7
298.15 K, x1 = 0.75	1.39378	23.8
298.15 K, x1 = 0.8	1.39482	23.9
298.15 K, x1 = 0.85	1.3958	24
298.15 K, x1 = 0.9	1.3967	24.1
298.15 K, x1 = 0.95	1.39755	24.2
298.15 K, x1 = 1	1.39836	24.3
308.15 K, x1 = 0.05	1.35964	21.6
308.15 K, x1 = 0.1	1.36349	21.6
308.15 K, x1 = 0.15	1.3669	21.7
308.15 K, x1 = 0.2	1.36992	21.8
308.15 K, x1 = 0.25	1.3726	21.9
308.15 K, x1 = 0.3	1.37499	22
308.15 K, x1 = 0.35	1.37714	22.1
308.15 K, x1 = 0.4	1.37909	22.2
308.15 K, x1 = 0.45	1.38087	22.3
308.15 K, x1 = 0.5	1.38251	22.4
308.15 K, x1 = 0.55	1.38404	22.5
308.15 K, x1 = 0.6	1.38545	22.6
308.15 K, x1 = 0.65	1.38675	22.7
308.15 K, x1 = 0.7	1.38795	22.8
308.15 K, x1 = 0.75	1.38907	22.9
308.15 K, x1 = 0.8	1.39011	23
308.15 K, x1 = 0.85	1.39109	23.1
308.15 K, x1 = 0.9	1.39199	23.2
308.15 K, x1 = 0.95	1.39284	23.3
308.15 K, x1 = 1	1.39365	23.4
318.15 K, x1 = 0.05	1.35556	20.6
318.15 K, x1 = 0.1	1.3593	20.6
318.15 K, x1 = 0.15	1.36263	20.7
318.15 K, x1 = 0.2	1.36558	20.8
318.15 K, x1 = 0.25	1.36821	20.9
318.15 K, x1 = 0.3	1.37056	21
318.15 K, x1 = 0.35	1.37268	21.1
318.15 K, x1 = 0.4	1.3746	21.2
318.15 K, x1 = 0.45	1.37634	21.3
318.15 K, x1 = 0.5	1.37795	21.4
318.15 K, x1 = 0.55	1.37944	21.5
318.15 K, x1 = 0.6	1.38082	21.6
318.15 K, x1 = 0.65	1.38211	21.7
318.15 K, x1 = 0.7	1.3833	21.8
318.15 K, x1 = 0.75	1.3844	21.9
318.15 K, x1 = 0.8	1.38543	22
318.15 K, x1 = 0.85	1.3864	22.1
318.15 K, x1 = 0.9	1.3873	22.2
318.15 K, x1 = 0.95	1.38814	22.3
318.15 K, x1 = 1	1.38895	22.4
